Key:
Assay type in all cases: in vivo
[1] = system: bedstraw (Galium aparine); test: Test B pre-/postemergence; set-up: key: 0 is no effect; 10 is complete control; conditions: for Bedstraw plant response rating: Preemergence
Text: (§1) Seeds of bedstraw (Galium aparine), blackgrass (Alopecurus myosuroides), broadleaf signalgrass (Brachiaria decumbens), cocklebur (Xanthium strumarium), corn (Zea mays), crabgrass (Digitaria sanguinalis), giant foxtail (Setaria faberii), lambsquarters (Chenopodium album), momingglory (Ipomoea hederacea), pigweed (Amaranthus retroflexus), rape (Brassica napus), soybean (Glycine max), sugar beet (Beta vulgaris), velvetleaf (Abutilon theophrasti), wheat (Triticum aestivum), wild oat (Avena fatua) and purple nutsedge (Cyperus rotundus) tubers were planted and treated preemergence with test chemicals formulated in a non-phytotoxic solvent mixture which included a surfactant.
(§2) At the same time, these crop and weed species were also treated with postemergence applications of test chemicals formulated in the same manner. Plants ranged in height from 2 to 18 cm (1- to 4-leaf stage) for postemergence treatments. Plant species in the flood test consisted of rice (Oryza sativa), smallflower flatsedge (Cyperus difformis), duck salad (Heteranthera limosa) and bamyardgrass (Echinochloa crus-galli) grown to the 2-leaf stage for testing. Treated plants and controls were maintained in a greenhouse for twelve to sixteen days, after which all species were compared to controls and visually evaluated. Plant response ratings, summarized in Table B, are based on a scale of 0 to 10 where 0 is no effect and 10 is complete control. A dash (−) response means no test result.

[2] = system: blackgrass (Alopecurus myosuroides); test: Test B pre-/postemergence; set-up: key: 0 is no effect; 10 is complete control; conditions: for Blackgrass plant response rating: Preemergence
Text: as §1, §2

[3] = system: broadleaf signalgrass (Brachiaria decumbens); test: Test B pre-/postemergence; set-up: key: 0 is no effect; 10 is complete control; conditions: for B. signalgrass plant response rating: Preemergence
Text: as §1, §2

[4] = system: cocklebur (Xanthium strumarium); test: Test B pre-/postemergence; set-up: key: 0 is no effect; 10 is complete control; conditions: for Cocklebur plant response rating: Preemergence
Text: as §1, §2

corn (Zea mays) = test: Test B pre-/postemergence; set-up: key: 0 is no effect; 10 is complete control; conditions: for Corn plant response rating: Preemergence
Text: as §1, §2

[5] = system: crabgrass (Digitaria sanguinalis); test: Test B pre-/postemergence; set-up: key: 0 is no effect; 10 is complete control; conditions: for Crabgrass plant response rating: Preemergence
Text: as §1, §2

[6] = system: giant foxtail (Setaria faberii); test: Test B pre-/postemergence; set-up: key: 0 is no effect; 10 is complete control
Text: as §1, §2

[7] = system: momingglory (Ipomoea hederacea); test: Test B pre-/postemergence; set-up: key: 0 is no effect; 10 is complete control
Text: as §1, §2

[8] = system: pigweed (Amaranthus retroflexus); test: Test B pre-/postemergence; set-up: key: 0 is no effect; 10 is complete control
Text: as §1, §2

rape (Brassica napus) = test: Test B pre-/postemergence; set-up: key: 0 is no effect; 10 is complete control
Text: as §1, §2

soybean (Glycine max) = test: Test B pre-/postemergence; set-up: key: 0 is no effect; 10 is complete control
Text: as §1, §2

[9] = system: sugar beet (Beta vulgaris); test: Test B pre-/postemergence; set-up: key: 0 is no effect; 10 is complete control
Text: as §1, §2

[10] = system: velvetleaf (Abutilon theophrasti); test: Test B pre-/postemergence; set-up: key: 0 is no effect; 10 is complete control
Text: as §1, §2

[11] = system: wheat (Triticum aestivum); test: Test B pre-/postemergence; set-up: key: 0 is no effect; 10 is complete control
Text: as §1, §2

wild oat (Avena fatua) = test: Test B pre-/postemergence; set-up: key: 0 is no effect; 10 is complete control
Text: as §1, §2

[12] = system: bamyardgrass (Echinochloa crus-galli); test: Test B flood test
Procedure: as §2

[13] = system: duck salad (Heteranthera limosa); test: Test B flood test
Procedure: as §2

rice (Oryza sativa) = test: Test B flood test
Procedure: as §2

[14] = system: smallflower flatsedge (Cyperus difformis); test: Test B flood test
Procedure: as §2

[15] = Rate 250 g/ha, Postemergence (so in the source)
[16] = Rate 62 g/ha, Postemergence (flood test)
[17] = Rate 125 g/ha, Postemergence, flood test
[18] = Rate 250 g/ha, Postemergence (flood test species)
[19] = Rate 125 g/ha, Postemergence section (flood test species)

CCc1cnc(-n2cnc(C(F)(F)F)c2)nc1Cc1cccc(OC(F)(F)F)c1 [Compound 49]
Plant response rating, Bedstraw ([1]; Rate 62 g/ha, Postemergence): 9 | Bedstraw plant response rating ([1]; Rate 62 g/ha): 4 | Bedstraw plant response rating ([1]; Rate 125 g/ha): 7 | Plant response rating, Bedstraw [1, 15]: 8 | Plant response rating, Blackgrass ([2]; Rate 62 g/ha, Postemergence): 5 | Blackgrass plant response rating ([2]; Rate 62 g/ha): 4 | Plant response rating, Blackgrass ([2]; Rate 125 g/ha, Postemergence): 6 | Blackgrass plant response rating ([2]; Rate 125 g/ha): 4 | Plant response rating, Blackgrass ([2]; Rate 250 g/ha, Postemergence): 6 | Plant response rating, Blackgrass [2, 15]: 6 | Plant response rating, B. signalgrass ([3]; Rate 62 g/ha, Postemergence): 2 | B. signalgrass plant response rating ([3]; Rate 62 g/ha): 0 | Plant response rating, B. signalgrass ([3]; Rate 125 g/ha, Postemergence): 3 | B. signalgrass plant response rating ([3]; Rate 125 g/ha): 1 | Plant response rating, B. signalgrass ([3]; Rate 250 g/ha, Postemergence): 4 | Plant response rating, B. signalgrass ([3]; Rate 250 g/ha, Postemergence as printed in head r139 (second section for compounds 26-50)): 5 | Plant response rating, Cocklebur ([4]; Rate 62 g/ha, Postemergence): 7 | Cocklebur plant response rating ([4]; Rate 62 g/ha): 0 | Plant response rating, Cocklebur ([4]; Rate 125 g/ha, Postemergence): 7 | Cocklebur plant response rating ([4]; Rate 125 g/ha): 0 | Plant response rating, Cocklebur ([4]; Rate 250 g/ha, Postemergence): 9 | Plant response rating, Cocklebur [4, 15]: 2 | Plant response rating, Corn (corn (Zea mays); Rate 62 g/ha, Postemergence): 3 | Corn plant response rating (corn (Zea mays); Rate 62 g/ha): 0 | Plant response rating, Corn (corn (Zea mays); Rate 125 g/ha, Postemergence): 3 | Corn plant response rating (corn (Zea mays); Rate 125 g/ha): 1 | Plant response rating, Corn (corn (Zea mays); Rate 250 g/ha, Postemergence): 4 | Plant response rating, Corn (corn (Zea mays); [15]): 1 | Plant response rating, Crabgrass ([5]; Rate 62 g/ha, Postemergence): 5 | Crabgrass plant response rating ([5]; Rate 62 g/ha): 5 | Plant response rating, Crabgrass ([5]; Rate 125 g/ha, Postemergence): 6 | Crabgrass plant response rating ([5]; Rate 125 g/ha): 7 | Plant response rating, Crabgrass ([5]; Rate 250 g/ha, Postemergence): 9 | Plant response rating, Crabgrass [5, 15]: 9 | Plant response rating, Giant foxtail ([6]; Rate 62 g/ha, Postemergence): 2 | Giant foxtail plant response rating ([6]; Rate 62 g/ha, Preemergence): 5 | Giant foxtail plant response rating ([6]; Rate 125 g/ha, Postemergence): 5 | Giant foxtail plant response rating ([6]; Rate 125 g/ha, Preemergence): 8 | Plant response rating, Giant foxtail ([6]; Rate 250 g/ha, Postemergence): 5 | Plant response rating, Giant foxtail [6, 15]: 9 | Plant response rating, Morningglory ([7]; Rate 62 g/ha, Postemergence): 2 | Morningglory plant response rating ([7]; Rate 62 g/ha, Preemergence): 1 | Morningglory plant response rating ([7]; Rate 125 g/ha, Postemergence): 6 | Morningglory plant response rating ([7]; Rate 125 g/ha, Preemergence): 3 | Plant response rating, Morningglory ([7]; Rate 250 g/ha, Postemergence): 9 | Plant response rating, Morningglory [7, 15]: 4 | Plant response rating, Redroot pigweed ([8]; Rate 62 g/ha, Postemergence): 9 | Redroot pigweed plant response rating ([8]; Rate 62 g/ha, Preemergence): 8 | Redroot pigweed plant response rating ([8]; Rate 125 g/ha, Postemergence): 9 | Redroot pigweed plant response rating ([8]; Rate 125 g/ha, Preemergence): 8 | Plant response rating, Redroot pigweed ([8]; Rate 250 g/ha, Postemergence): 9 | Plant response rating, Redroot pigweed [8, 15]: 10 | Plant response rating, Rape (rape (Brassica napus); Rate 62 g/ha, Postemergence): 9 | Rape plant response rating (rape (Brassica napus); Rate 62 g/ha, Preemergence): 7 | Rape plant response rating (rape (Brassica napus); Rate 125 g/ha, Postemergence): 9 | Rape plant response rating (rape (Brassica napus); Rate 125 g/ha, Preemergence): 8 | Plant response rating, Rape (rape (Brassica napus); Rate 250 g/ha, Postemergence): 9 | Plant response rating, Rape (rape (Brassica napus); [15]): 10 | Plant response rating, Soybean (soybean (Glycine max); Rate 62 g/ha, Postemergence): 6 | Soybean plant response rating (soybean (Glycine max); Rate 62 g/ha, Preemergence): 0 | Soybean plant response rating (soybean (Glycine max); Rate 125 g/ha, Postemergence): 7 | Plant response rating, Soybean (soybean (Glycine max); Rate 125 g/ha, Preemergence): 1 | Plant response rating, Soybean (soybean (Glycine max); Rate 250 g/ha, Postemergence): 7 | Plant response rating, Soybean (soybean (Glycine max); [15]): 1 | Plant response rating, Sugarbeets ([9]; Rate 62 g/ha, Postemergence): 9 | Sugarbeets plant response rating ([9]; Rate 62 g/ha, Preemergence): 6 | Sugarbeets plant response rating ([9]; Rate 125 g/ha, Postemergence): 9 | Plant response rating, Sugarbeets ([9]; Rate 125 g/ha, Preemergence): 6 | Plant response rating, Sugarbeets ([9]; Rate 250 g/ha, Postemergence): 9 | Plant response rating, Sugarbeets [9, 15]: 9 | Plant response rating, Velvetleaf ([10]; Rate 62 g/ha, Postemergence): 8 | Velvetleaf plant response rating ([10]; Rate 62 g/ha, Preemergence): 3 | Velvetleaf plant response rating ([10]; Rate 125 g/ha, Postemergence): 8 | Plant response rating, Velvetleaf ([10]; Rate 125 g/ha, Preemergence): 8 | Plant response rating, Velvetleaf ([10]; Rate 250 g/ha, Postemergence): 9 | Plant response rating, Velvetleaf [10, 15]: 8 | Wheat plant response rating ([11]; Rate 62 g/ha, Postemergence): 4 | Wheat plant response rating ([11]; Rate 62 g/ha, Preemergence): 1 | Wheat plant response rating ([11]; Rate 125 g/ha, Postemergence): 5 | Plant response rating, Wheat ([11]; Rate 125 g/ha, Preemergence): 4 | Plant response rating, Wheat ([11]; Rate 250 g/ha, Postemergence): 5 | Plant response rating, Wheat [11, 15]: 4 | Wild oats plant response rating (wild oat (Avena fatua); Rate 62 g/ha, Postemergence): 5 | Wild oats plant response rating (wild oat (Avena fatua); Rate 62 g/ha, Preemergence): 2 | Wild oats plant response rating (wild oat (Avena fatua); Rate 125 g/ha, Postemergence): 6 | Plant response rating, Wild oats (wild oat (Avena fatua); Rate 125 g/ha, Preemergence): 6 | Plant response rating, Wild oats (wild oat (Avena fatua); Rate 250 g/ha, Postemergence): 7 | Plant response rating, Wild oats (wild oat (Avena fatua); [15]): 7 | Plant response rating, Barnyardgrass [12, 16]: 5 | Plant response rating, Barnyardgrass [12, 17]: 5 | Plant response rating, Barnyardgrass [12, 18]: 6 | Plant response rating, Ducksalad [13, 16]: 4 | Plant response rating, Ducksalad [13, 17]: 4 | Plant response rating, Ducksalad [13, 18]: 4 | Plant response rating, Rice (rice (Oryza sativa); [16]): 3 | Rice plant response rating (rice (Oryza sativa); [19]): 4 | Plant response rating, Rice (rice (Oryza sativa); [18]): 5 | Plant response rating, S. Flatsedge [14, 16]: 4 | S. Flatsedge plant response rating [14, 19]: 4 | Plant response rating, S. Flatsedge [14, 18]: 9
